Assay results published in PubChem BioAssay AID1963968 (Molecular Pharmacology Branch, DTP, NCI, 2024).

Test system: 945468-187-T-J3-PDC spheroids with HUVEC/MSC, viability
Assay: Anticancer human tumor 945468-187-T-J3-PDC patient-derived rectal carcinoma cell line growth inhibition [PI3K]
Details: for IC50: curve of first compound; for viability, T/C: stronger effect = lower value
Method in brief: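 Complex 3D spheroids (cancer cells + endothelial HUVEC + mesenchymal stem cells); drug pairs of targeted agent x inavolisib/alpelisib/duvelisib/copanlisib; half-log series from ~Cmax, max 10 microM if Cmax unknown; endpoint viability.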

[1] = second compound 0.0316 µM, first compound 0.0316 µM
[2] = second compound 0.0316 µM, first compound 0.1 µM
[3] = second compound 0.0316 µM, first compound 0.316 µM
[4] = second compound 0.0316 µM, first compound 1 µM
[5] = second compound 0.0316 µM, first compound 3.16 µM
[6] = second compound 0.0316 µM, first compound 10 µM
[7] = second compound 0.1 µM, first compound 0.0316 µM
[8] = second compound 0.1 µM, first compound 0.1 µM
[9] = second compound 0.1 µM, first compound 0.316 µM
[10] = second compound 0.1 µM, first compound 1 µM
[11] = second compound 0.1 µM, first compound 3.16 µM
[12] = second compound 0.1 µM, first compound 10 µM
[13] = second compound 0.316 µM, first compound 0.0316 µM
[14] = second compound 0.316 µM, first compound 0.1 µM
[15] = second compound 0.316 µM, first compound 0.316 µM
[16] = second compound 0.316 µM, first compound 1 µM
[17] = second compound 0.316 µM, first compound 3.16 µM
[18] = second compound 0.316 µM, first compound 10 µM
[19] = second compound 1 µM, first compound 0.0316 µM
[20] = second compound 1 µM, first compound 0.1 µM
[21] = second compound 1 µM, first compound 0.316 µM
[22] = second compound 1 µM, first compound 1 µM
[23] = second compound 1 µM, first compound 3.16 µM
[24] = second compound 1 µM, first compound 10 µM
[25] = second compound 3.16 µM, first compound 0.0316 µM
[26] = second compound 3.16 µM, first compound 0.1 µM
[27] = second compound 3.16 µM, first compound 0.316 µM
[28] = second compound 3.16 µM, first compound 1 µM
[29] = second compound 3.16 µM, first compound 3.16 µM
[30] = second compound 3.16 µM, first compound 10 µM
[31] = second compound 10 µM, first compound 0.0316 µM
[32] = second compound 10 µM, first compound 0.1 µM
[33] = second compound 10 µM, first compound 0.316 µM
[34] = second compound 10 µM, first compound 1 µM
[35] = second compound 10 µM, first compound 3.16 µM
[36] = second compound 10 µM, first compound 10 µM
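Further: spheroids exposed to agents for 7 days before viability read.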
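Wherever viability, T/C is given: 100% = DMSO vehicle control viability.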

C#Cc1c(F)ccc2cc(O)cc(-c3ncc4c(N5CC6CCC(C5)N6)nc(OCC56CCCN5CC(F)C6)nc4c3F)c12 (centres undefined) + Cc1nc(NC(=O)N2CCCC2C(N)=O)sc1-c1ccnc(C(C)(C)C(F)(F)F)c1
IC50 (second compound 0.0316 µM): > 10 µM | IC50 (second compound 0.1 µM): > 10 µM | IC50 (second compound 0.316 µM): > 10 µM | IC50 (second compound 1 µM): > 10 µM | IC50 (second compound 3.16 µM): 7.25 µM | IC50 (second compound 10 µM): 0.464 µM | viability, T/C [1]: 96.8% | viability, T/C [2]: 101% | viability, T/C [3]: 95.4% | viability, T/C [4]: 107% | viability, T/C [5]: 127% | viability, T/C [6]: 119% | viability, T/C [7]: 105% | viability, T/C [8]: 115% | viability, T/C [9]: 101% | viability, T/C [10]: 113% | viability, T/C [11]: 132% | viability, T/C [12]: 115% | viability, T/C [13]: 109% | viability, T/C [14]: 105% | viability, T/C [15]: 97.6% | viability, T/C [16]: 113% | viability, T/C [17]: 134% | viability, T/C [18]: 118% | viability, T/C [19]: 114% | viability, T/C [20]: 110% | viability, T/C [21]: 109% | viability, T/C [22]: 112% | viability, T/C [23]: 127% | viability, T/C [24]: 106% | viability, T/C [25]: 107% | viability, T/C [26]: 110% | viability, T/C [27]: 111% | viability, T/C [28]: 103% | viability, T/C [29]: 80.9% | viability, T/C [30]: 38% | viability, T/C [31]: 70.4% | viability, T/C [32]: 59.9% | viability, T/C [33]: 50% | viability, T/C [34]: 47.8% | viability, T/C [35]: 26.9% | viability, T/C [36]: 9.1%

CC1(C)CCC(Nc2ncc(C(F)(F)F)c(-c3c[nH]c4c(P(C)(C)=O)c(C#N)ccc34)n2)CN1 (centres undefined) + Cc1nc(NC(=O)N2CCCC2C(N)=O)sc1-c1ccnc(C(C)(C)C(F)(F)F)c1
IC50 (second compound 0.0316 µM): 5.65 µM | IC50 (second compound 0.1 µM): 5.41 µM | IC50 (second compound 0.316 µM): 5.06 µM | IC50 (second compound 1 µM): 4.44 µM | IC50 (second compound 3.16 µM): 1.9 µM | IC50 (second compound 10 µM): 0.841 µM | viability, T/C [1]: 81.7% | viability, T/C [2]: 84.6% | viability, T/C [3]: 72.8% | viability, T/C [4]: 85.5% | viability, T/C [5]: 101% | viability, T/C [6]: 15.4% | viability, T/C [7]: 91.4% | viability, T/C [8]: 75.8% | viability, T/C [9]: 79% | viability, T/C [10]: 79.9% | viability, T/C [11]: 84.4% | viability, T/C [12]: 13.2% | viability, T/C [13]: 82.5% | viability, T/C [14]: 75.5% | viability, T/C [15]: 65.4% | viability, T/C [16]: 75.9% | viability, T/C [17]: 85% | viability, T/C [18]: 11.2% | viability, T/C [19]: 107% | viability, T/C [20]: 76.7% | viability, T/C [21]: 72.2% | viability, T/C [22]: 86.7% | viability, T/C [23]: 68% | viability, T/C [24]: 7.36% | viability, T/C [25]: 78.5% | viability, T/C [26]: 72.2% | viability, T/C [27]: 75.5% | viability, T/C [28]: 54.8% | viability, T/C [29]: 44.5% | viability, T/C [30]: 5.2% | viability, T/C [31]: 65.1% | viability, T/C [32]: 60% | viability, T/C [33]: 50.6% | viability, T/C [34]: 44.5% | viability, T/C [35]: 40.2% | viability, T/C [36]: 2.06%
